Experiments:
[1] = skin permeability, static Franz diffusion cells; assay type: in vitro ADME, pig; conditions: for permeation of epidermis: 6 h experiment, donor 0.1 mg/mL; for recovery at 6 h, 0.1 mg/mL: pig; for recovery at 6 h, 0.1 mg/mL / amount in receptor fluid after 6 h (%) / amount on/in skin (%) / recovery (%): w/w %; for recovery at 6 h, 0.1 mg/mL / recovery (%): sum of receptor compartment after 6 h and overnight skin extraction; for amount on/in skin (%): overnight skin extraction after 6 h
Protocol: For the permeability experiments, ultra-performance liquid chromatography-electrospray ionization tandem mass spectroscopy (UPLC)-ESI-MS/MS analysis was carried out using a Xevo TQ-S micro triple quadrupole mass spectrometer equipped with an electrospray interface and coupled to an Acquity UPLC H-Class Plus system from Waters. Separation was achieved on an ACE Excel C18-PFP column (75 × 2.1 mm, 1.7 μm) from Advanced Chromatography Technologies Ltd. (Aberdeen, Scotland). Mobile phase A consisted of 0.1% formic acid and 5% acetonitrile in water, whereas mobile phase B consisted of 0.1% formic acid and 5% water in acetonitrile. The gradient program used was as follows: 20% B (0–2 min), 20–80% B (2–9 min), 80–95% B (9–9.1 min), 95% B (9.1–12 min), 95–20% B (12–12.1 min), 20% B (12.1–15 min). The flow rate was set to 0.3 mL/min and the injection volume was 2 μL. Analysis was performed in positive ionization mode using a Multiple Reaction Monitoring (MRM) method. The optimal parameters were capillary voltage 1.5 (kV), desolvation temperature 650 °C, desolvation gas 850 L/h, and cone 100 L/h.
The Franz diffusion cell experiment was based on the OECD Test Guidelines.[35] Static Franz diffusion cells equipped with pig ex vivo epidermis were used to assess the permeability of isosorbide bis-epoxides 2 and 3. Freshly cut pig ears were received frozen and stored at −20 °C until used for permeability assessment. One day before the experiment, the ears were transferred at +4 °C and allowed to thaw. The ears were then washed, shaved, and carefully cut with a Watson Dermatome skin graft knife to obtain 0.1 mm pieces of the epidermis layer. The integrity of the skin (transparent and intact) was determined by ocular inspection. Thereafter, the epidermis layer was cut and positioned between the donor and receptor compartment of each Franz cell. The receptor compartments were filled with 5 mL of ethanol/PBS (1:1) and equipped with a small magnetic stir bar to ensure mixing while maintaining a constant temperature of the circulating water at 37 °C. To equilibrate the skin, the upper chamber was filled with 0.5 mL of ethanol/PBS (1:1) which was later removed and replaced with the donor solution (50 μL) containing either 2 or 3 (0.1 mg/mL) or DGEBA (0.1 mg/mL) used as a positive control. A procedural blank containing only 50 μL of ethanol/PBS (1:1) in the donor compartment was also included in the experimental setup. Samples of 100 μL were collected after 0–2 min, 1, 2, 3, 4, 5, and 6 h. At each timepoint, a sample aliquot was removed and 100 μL of ethanol/PBS (1:1) was added to the receptor compartment to keep the volume constant. After 6 h, the skin from each Franz cell was extracted overnight in 5 mL of ethanol/PBS (1,1). Triplicate experiments were performed for each compound. The obtained samples were analyzed with UPLC-ESI-MS/MS (see Figure S2 for parameters) and quantification was based on external calibration curves. The limit of quantification (LOQ) was determined by the analysis of the analyte at low concentration and was calculated as 10 times the signal-to-noise ratio.

AcPHCKRM = experiment: peptide depletion with AcPHCKRM; conditions: peptide 1 mM, test compound 10 mM, DMSO/phosphate buffer pH 7.4 (1:1), room temperature
Protocol: Liquid chromatography-mass spectroscopy (LC-MS) analyses of peptide depletion experiments were performed using electrospray ionization (ESI) on a Hewlett-Packard 1100 HPLC/MS (Agilent Technologies, Waldbronn, Germany). The system included a vacuum degasser, a binary pump, an autoinjector, a column thermostat, a diode array detector, and a single quadrupole mass spectrometer. The high-performance liquid chromatography (HPLC) system was equipped with a HyPURITY C18 column (150 × 3 mm i.d., particle size 3 μm, Thermo Hypersil-Keystone, Thermo Electron Corp., Bellafonte, PA, USA). The mobile phase consisted of 0.005% pentafluoropropanoic acid, 0.1% acetic acid, and 5% acetonitrile in water (solvent A) and 0.005% pentafluoropropanoic acid, 0.1% acetic acid, and 50% water in acetonitrile (solvent B). […] The gradient conditions used were as follows: 0-8% B (0-3 min), 8-10% B (3-15 min), 10-100% B (15-18 min), 100% B (18-30 min), 100-0% B (30-30.1 min), 0% B (30.1-40 min). The ESI interface was used in positive ionization mode with the following spray chamber settings: nebulizer pressure, 35 psi; capillary voltage, 3000 V; drying gas temperature, 350 °C; and drying gas flow rate, 12 L/min. The fragmentor voltage was set to 120 V. The mass spectrometer was used in scan mode detecting molecular ions with m/z values ranging from 50 to 1800. All solvents were degassed with argon prior to use.

[2] = thermogravimetric analysis (TGA) of polymers formed with TETA; assay type: physicochemical; conditions: polymer cured with TETA, TGA under nitrogen
Protocol: Detailed information on the polymerization procedure and the thermogravimetric analysis (TGA) is given in the Supporting Information.
Pilot experiments using TGA were conducted to investigate the properties of the polymers formed from isosorbide bis-epoxides 1–3 and the commonly used curing agent TETA (Table 2 and Figure 6). The onset of degradation is described by the initial decomposition temperature (IDT) and is an indication of the thermal stability of the cured epoxy resins. The maximum weight loss rate (Rmax) and the temperature (Tmax) at Rmax were taken from the peak values of the thermograms. The activation energies (Ea) for the decomposition of the polymers were calculated from the thermograms based on the Horowitz–Metzger equation.[43],[44]

[3] = Extract: skin extracted overnight after 6 h

## c1cc(CC2CO2)ccc1CO[C@H]1CO[C@H]2[C@@H]1OC[C@H]2OCc1ccc(CC2CO2)cc1 (stereo partly drawn) [Compound 3, (3R,3aR,6S,6aR)-3,6-O-Bis[4-(3,4-epoxypropyl)benzyl]-1,4:3,6-dianhydro-D-glucitol]
[1]
  permeation of epidermis: observed
  recovery at 6 h, 0.1 mg/mL: 25%
  amount in receptor fluid after 6 h (%): 21.7 ± 5.8%
  amount on/in skin (%): 3.2 ± 2.6%
  recovery (%): 24.9 ± 8.4%
[1]; [3]
  Average (µM): 0.0736 µM
  Average (µg/ml): 0.0323 µg/mL
  Replicate 1: 0.0650 µg/mL
  Replicate 2: 0.000965 µg/mL
  Replicate 3: 0.0309 µg/mL
[1]; receptor fluid, timepoint 0 h
  Average (µM): 0 µM
  Average (µg/ml): 0 µg/mL
  Replicate 1 (µg/ml): < LOQ
  Replicate 2 (µg/ml): < LOQ
  Replicate 3 (µg/ml): < LOQ
[1]; receptor fluid, timepoint 1 h
  Average (µM): 0.187 µM
  Average (µg/ml): 0.0818 µg/mL
  Replicate 1: 0.0897 µg/mL
  Replicate 2: 0.110 µg/mL
  Replicate 3: 0.0460 µg/mL
[1]; receptor fluid, timepoint 2 h
  Average (µM): 0.465 µM
  Average (µg/ml): 0.204 µg/mL
  Replicate 1: 0.139 µg/mL
  Replicate 2: 0.292 µg/mL
  Replicate 3: 0.180 µg/mL
[1]; receptor fluid, timepoint 3 h
  Average (µM): 0.563 µM
  Average (µg/ml): 0.247 µg/mL
  Replicate 1: 0.191 µg/mL
  Replicate 2: 0.347 µg/mL
  Replicate 3: 0.203 µg/mL
[1]; receptor fluid, timepoint 4 h
  Average (µM): 0.542 µM
  Average (µg/ml): 0.238 µg/mL
  Replicate 1: 0.202 µg/mL
  Replicate 2: 0.309 µg/mL
  Replicate 3: 0.203 µg/mL
[1]; receptor fluid, timepoint 5 h
  Average (µM): 0.539 µM
  Average (µg/ml): 0.236 µg/mL
  Replicate 1: 0.204 µg/mL
  Replicate 2: 0.306 µg/mL
  Replicate 3: 0.198 µg/mL
[1]; receptor fluid, timepoint 6 h
  Average (µM): 0.495 µM
  Average (µg/ml): 0.217 µg/mL
  Replicate 1: 0.165 µg/mL
  Replicate 2: 0.298 µg/mL
  Replicate 3: 0.189 µg/mL
AcPHCKRM
  reactivity with the model peptide AcPHCKRM: slightly less reactive
[2]
  Ea (activation energy for the decomposition of the cured epoxy resins): 18.2 kcal/mol
  IDT (initial decomposition temperature): 329 °C
  Rmax (maximum weight loss rate): –0.722 %/°C
  Tmax (temperature at the maximum rate of weight loss): 382 °C

## O=C(OC1COC2C(OC(=O)c3ccc(CC4CO4)cc3)COC12)c1ccc(CC2CO2)cc1 [Compound 2, (3R,3aR,6S,6aR)-3,6-O-Bis[4-(3,4-epoxypropyl)benzoyl]-1,4:3,6-dianhydro-D-glucitol]
[1]
  permeation of epidermis: observed
  recovery at 6 h, 0.1 mg/mL: 48%
  amount in receptor fluid after 6 h (%): 31.7 ± 12.6%
  amount on/in skin (%): 16.1 ± 3.0%
  recovery (%): 47.7 ± 15.6%
[1]; [3]
  Average (µM): 0.345 µM
  Average (µg/ml): 0.161 µg/mL
  Replicate 1: 0.203 µg/mL
  Replicate 2: 0.139 µg/mL
  Replicate 3: 0.141 µg/mL
[1]; receptor fluid, timepoint 0 h
  Average (µM): 0 µM
  Average (µg/ml): 0 µg/mL
  Replicate 1 (µg/ml): < LOQ
  Replicate 2 (µg/ml): < LOQ
  Replicate 3 (µg/ml): < LOQ
[1]; receptor fluid, timepoint 1 h
  Average (µM): 0.123 µM
  Average (µg/ml): 0.0574 µg/mL
  Replicate 1: 0.0637 µg/mL
  Replicate 2: 0.0511 µg/mL
[1]; receptor fluid, timepoint 2 h
  Average (µM): 0.490 µM
  Average (µg/ml): 0.228 µg/mL
  Replicate 1: 0.299 µg/mL
  Replicate 2: 0.233 µg/mL
  Replicate 3: 0.154 µg/mL
[1]; receptor fluid, timepoint 3 h
  Average (µM): 0.669 µM
  Average (µg/ml): 0.312 µg/mL
  Replicate 1: 0.437 µg/mL
  Replicate 2: 0.320 µg/mL
  Replicate 3: 0.180 µg/mL
[1]; receptor fluid, timepoint 4 h
  Average (µM): 0.796 µM
  Average (µg/ml): 0.371 µg/mL
  Replicate 1: 0.538 µg/mL
  Replicate 2: 0.362 µg/mL
  Replicate 3: 0.213 µg/mL
[1]; receptor fluid, timepoint 5 h
  Average (µM): 0.721 µM
  Average (µg/ml): 0.336 µg/mL
  Replicate 1: 0.500 µg/mL
  Replicate 2: 0.323 µg/mL
  Replicate 3: 0.186 µg/mL
[1]; receptor fluid, timepoint 6 h
  Average (µM): 0.679 µM
  Average (µg/ml): 0.317 µg/mL
  Replicate 1: 0.474 µg/mL
  Replicate 2: 0.309 µg/mL
  Replicate 3: 0.166 µg/mL
AcPHCKRM
  reactivity with the model peptide AcPHCKRM: least reactive
[2]
  Ea (activation energy for the decomposition of the cured epoxy resins): 15.8 kcal/mol
  IDT (initial decomposition temperature): 361 °C
  Rmax (maximum weight loss rate): –0.373 %/°C
  Tmax (temperature at the maximum rate of weight loss): 411 °C

Reference: publication PMC9945177, “Nature-Derived Epoxy Resin Monomers with Reduced Sensitizing Capacity—Isosorbide-Based Bis-Epoxides” (Chemical Research in Toxicology, 2023)
